Holding throughout (type): biochemical
The target of one assay is T1, PI3Kγ (Homo sapiens, UniProt P48736).
T1 construct: Full length N-terminal; His (N); host or cells: SF9 cells (baculovirus)
In words: Inhibition of PI3K isoforms: PI3Kγ (microfluidic electrophoresis kinase assay, PIP2/PS substrate). To be noted: p120γ, ATP 100 μM; read-out: PI3Kg IC50. The procedure:
(§1) The kinase substrate was prepared by mixing and sonicating fluorescently-labeled phosphatidylinositol 4,5-phosphate (PIP2) with phospho-L-serine (PS) at 1:20 ratio in 50 mM HEPES buffer pH7.5.
(§2) The kinase reactions were assembled in 384-well plates (Greiner) in a total volume of […] as follows. The kinase proteins were pre-diluted in an assay buffer comprising 50 mM HEPES, pH 7.5, 0.012% CHAPS, 1 mM DTT, 10 mM Na3VaO4, 10 mM 3-GP, 3 mM MgCl2, and 40 mM NaCl2, and dispensed into a 384-well plate (10 μL per well). Test compounds were serially pre-diluted in DMSO and added to the protein samples by acoustic dispensing (Labcyte Echo). The concentration of DMSO was equalized to 1% in all samples. All test compounds were tested at 12 concentrations. […] Terminated plates were analyzed on a microfluidic electrophoresis instrument (Caliper LabChip® 3000, Caliper Life Sciences/Perkin Elmer). The change in the relative fluorescence intensity of the PI(4,5)P substrate and PI(3,4,5)P product peaks was measured. The activity in each test sample was determined as the product to sum ratio (PSR): P/(S+P), where P is the peak height of the product, and S is the peak height of the substrate. Percent inhibition (Pinh) was determined using the following equation: […]

A further assay deals with T2, PI3Kβ (Homo sapiens, UniProt P42338).
T2 construct: Full-length N-terminal; GST (N); host or cells: SF9 cells (baculovirus)
T2 sequence (P42338 whole entry): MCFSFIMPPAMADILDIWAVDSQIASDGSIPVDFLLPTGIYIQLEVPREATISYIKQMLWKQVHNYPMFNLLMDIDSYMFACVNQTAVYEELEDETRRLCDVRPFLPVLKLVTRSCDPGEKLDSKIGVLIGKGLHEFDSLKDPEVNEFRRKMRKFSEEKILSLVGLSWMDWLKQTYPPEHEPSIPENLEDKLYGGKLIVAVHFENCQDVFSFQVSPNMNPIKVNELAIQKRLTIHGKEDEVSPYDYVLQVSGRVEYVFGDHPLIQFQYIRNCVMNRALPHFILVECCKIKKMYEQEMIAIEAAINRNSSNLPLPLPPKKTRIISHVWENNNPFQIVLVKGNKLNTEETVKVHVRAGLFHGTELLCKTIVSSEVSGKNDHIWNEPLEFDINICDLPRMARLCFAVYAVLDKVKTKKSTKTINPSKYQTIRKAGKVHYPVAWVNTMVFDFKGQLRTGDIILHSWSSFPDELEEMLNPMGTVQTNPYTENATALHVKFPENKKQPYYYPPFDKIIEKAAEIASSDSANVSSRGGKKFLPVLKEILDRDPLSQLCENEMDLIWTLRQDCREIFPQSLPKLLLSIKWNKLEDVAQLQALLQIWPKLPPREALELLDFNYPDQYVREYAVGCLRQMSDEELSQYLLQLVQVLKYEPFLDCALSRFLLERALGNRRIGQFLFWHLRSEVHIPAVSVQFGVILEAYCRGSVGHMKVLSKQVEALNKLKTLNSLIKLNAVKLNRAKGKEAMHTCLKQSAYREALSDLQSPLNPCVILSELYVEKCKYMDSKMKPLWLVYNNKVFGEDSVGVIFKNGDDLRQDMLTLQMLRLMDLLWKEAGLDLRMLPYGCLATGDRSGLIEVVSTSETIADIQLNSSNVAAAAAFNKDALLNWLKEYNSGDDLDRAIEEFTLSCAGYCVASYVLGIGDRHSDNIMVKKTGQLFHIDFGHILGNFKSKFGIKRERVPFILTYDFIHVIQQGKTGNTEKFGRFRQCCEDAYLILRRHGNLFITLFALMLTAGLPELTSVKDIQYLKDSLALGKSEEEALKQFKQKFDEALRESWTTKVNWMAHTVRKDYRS
T2 sequence (P27986 whole entry partner): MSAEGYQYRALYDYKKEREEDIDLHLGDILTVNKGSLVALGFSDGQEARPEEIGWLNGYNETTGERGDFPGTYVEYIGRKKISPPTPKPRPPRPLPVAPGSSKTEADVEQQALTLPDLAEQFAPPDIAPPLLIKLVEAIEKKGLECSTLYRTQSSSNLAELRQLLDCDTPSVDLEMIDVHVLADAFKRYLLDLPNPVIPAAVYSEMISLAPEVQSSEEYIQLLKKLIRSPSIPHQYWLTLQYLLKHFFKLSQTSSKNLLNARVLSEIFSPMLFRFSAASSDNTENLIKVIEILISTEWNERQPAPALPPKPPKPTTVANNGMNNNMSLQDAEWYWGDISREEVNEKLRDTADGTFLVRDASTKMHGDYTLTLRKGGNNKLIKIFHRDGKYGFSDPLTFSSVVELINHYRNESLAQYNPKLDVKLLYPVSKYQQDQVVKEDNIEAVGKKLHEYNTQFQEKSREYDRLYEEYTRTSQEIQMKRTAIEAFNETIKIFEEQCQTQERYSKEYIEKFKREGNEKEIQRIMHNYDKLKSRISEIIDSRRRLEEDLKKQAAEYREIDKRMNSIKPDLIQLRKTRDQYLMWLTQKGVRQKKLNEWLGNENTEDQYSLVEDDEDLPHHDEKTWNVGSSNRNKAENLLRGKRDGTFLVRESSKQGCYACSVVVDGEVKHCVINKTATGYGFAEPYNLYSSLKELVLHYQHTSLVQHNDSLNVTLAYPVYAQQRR
In words: Inhibition of PI3K isoforms: PI3Kβ (microfluidic electrophoresis kinase assay, PIP2/PS substrate). The settings on record: p110β/p85α, ATP 60 μM; read-out: PI3Kb IC50. How it is done: as §1, §2

For another assay, the target named is T3, PI3Kα (Homo sapiens, UniProt P42336).
T3 construct: Full-length N-terminal; FLAG (N); host or cells: SF9 cells (baculovirus)
T3 sequence (P42336 whole entry): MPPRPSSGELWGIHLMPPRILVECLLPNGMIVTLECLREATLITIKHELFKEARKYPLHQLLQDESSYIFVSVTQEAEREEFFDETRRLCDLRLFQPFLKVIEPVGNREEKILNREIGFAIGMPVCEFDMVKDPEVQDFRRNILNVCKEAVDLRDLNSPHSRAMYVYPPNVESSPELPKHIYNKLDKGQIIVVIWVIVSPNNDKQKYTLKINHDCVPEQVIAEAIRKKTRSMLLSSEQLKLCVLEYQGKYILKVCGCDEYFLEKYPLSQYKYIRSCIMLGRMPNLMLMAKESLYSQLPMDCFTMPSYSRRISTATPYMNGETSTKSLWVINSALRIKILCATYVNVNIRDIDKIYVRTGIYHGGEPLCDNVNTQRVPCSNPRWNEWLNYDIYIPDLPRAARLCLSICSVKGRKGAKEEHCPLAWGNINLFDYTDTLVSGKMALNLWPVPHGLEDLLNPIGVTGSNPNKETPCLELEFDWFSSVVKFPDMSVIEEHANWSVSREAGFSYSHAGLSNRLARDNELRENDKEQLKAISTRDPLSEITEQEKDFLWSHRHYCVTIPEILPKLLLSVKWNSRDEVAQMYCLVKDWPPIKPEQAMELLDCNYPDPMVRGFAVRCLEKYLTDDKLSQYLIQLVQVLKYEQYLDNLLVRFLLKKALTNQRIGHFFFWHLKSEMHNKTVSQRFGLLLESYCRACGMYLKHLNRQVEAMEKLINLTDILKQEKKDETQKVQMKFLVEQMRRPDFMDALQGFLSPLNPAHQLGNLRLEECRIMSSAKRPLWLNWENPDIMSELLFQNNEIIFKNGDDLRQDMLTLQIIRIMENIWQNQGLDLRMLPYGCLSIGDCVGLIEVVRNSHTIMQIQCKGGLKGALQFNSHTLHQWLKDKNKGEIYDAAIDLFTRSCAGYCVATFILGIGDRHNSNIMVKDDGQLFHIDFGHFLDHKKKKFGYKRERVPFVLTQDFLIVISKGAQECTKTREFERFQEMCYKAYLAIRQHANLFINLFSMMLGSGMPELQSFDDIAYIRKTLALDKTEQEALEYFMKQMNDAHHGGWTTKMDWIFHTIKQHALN
T3 sequence (P27986 whole entry partner): as the sequence (P27986 whole entry partner) above
Briefly: Inhibition of PI3K isoforms: PI3Kα (microfluidic electrophoresis kinase assay, PIP2/PS substrate). The settings on record: p110α/p85α, ATP 90 μM; read-out: PI3Ka IC50. How it is done:
as §1
The kinase reactions were assembled in 384-well plates (Greiner) in a total volume of […] as follows. The kinase proteins were pre-diluted in an assay buffer comprising 50 mM HEPES, pH 7.5, 0.012% CHAPS, 1 mM DTT, 10 mM Na3VaO4, 10 mM 3-GP, 3 mM MgCl2, and 40 mM NaCl2, and dispensed into a 384-well plate (10 μL per well). Test compounds were serially pre-diluted in DMSO and added to the protein samples by acoustic dispensing (Labcyte Echo). The concentration of DMSO was equalized to 1% in all samples. All test compounds were tested at 12 concentrations. The control samples (0%-inhibition in the absence of inhibitor, DMSO only) and 100%-inhibition (in the absence of enzyme) were assembled in replicates of four and were used to calculate %-inhibition in the presence of test compounds. The reactions were initiated by addition of 10 μL of the PIP2/PS substrate supplemented with ATP. The final concentration of enzymes was 0.5 nM (PI3Kα), 1 nM (PI3Kβ), 10 nM (PI3Kγ), and 0.25 nM (PI3Kδ). The final concentration of ATP was 90 μM (PI3Kα), 60 μM (PI3Kβ), 100 μM (PI3Kγ), and 90 μM (PI3Kδ). The final concentration of PIP2/PS substrate was 1 μM (PIP2). The kinase reactions were allowed to proceed for 3 h at room temperature. Following incubation, the reactions were quenched by addition of 50 μL of termination buffer (100 mM HEPES, pH 7.5, 0.01% Triton X-100, 20 mM EDTA). Terminated plates were analyzed on a microfluidic electrophoresis instrument (Caliper LabChip® 3000, Caliper Life Sciences/Perkin Elmer). The change in the relative fluorescence intensity of the PI(4,5)P substrate and PI(3,4,5)P product peaks was measured. The activity in each test sample was determined as the product to sum ratio (PSR): P/(S+P), where P is the peak height of the product, and S is the peak height of the substrate. Percent inhibition (Pinh) was determined using the following equation:
Pinh=(PSR0% inh−PSRcompound)/(PSR0% inh−PSR100% inh)*100
in which PSRcompound is the product/sum ratio in the presence of compound, PSR0% inh is the product/sum ratio in the absence of compound, and the PSR100% inh is the product/sum ratio in the absence of the enzyme.

The target of assay [1] is T4, Full length human recombinant PIKFYVE (Homo sapiens, UniProt Q9Y2I7).
T4 construct: Full length human recombinant PIKFYVE; purchased Carna Biosciences (Kobe, Japan); host or cells: baculovirus expression system
T4 sequence (Q9Y2I7 whole entry): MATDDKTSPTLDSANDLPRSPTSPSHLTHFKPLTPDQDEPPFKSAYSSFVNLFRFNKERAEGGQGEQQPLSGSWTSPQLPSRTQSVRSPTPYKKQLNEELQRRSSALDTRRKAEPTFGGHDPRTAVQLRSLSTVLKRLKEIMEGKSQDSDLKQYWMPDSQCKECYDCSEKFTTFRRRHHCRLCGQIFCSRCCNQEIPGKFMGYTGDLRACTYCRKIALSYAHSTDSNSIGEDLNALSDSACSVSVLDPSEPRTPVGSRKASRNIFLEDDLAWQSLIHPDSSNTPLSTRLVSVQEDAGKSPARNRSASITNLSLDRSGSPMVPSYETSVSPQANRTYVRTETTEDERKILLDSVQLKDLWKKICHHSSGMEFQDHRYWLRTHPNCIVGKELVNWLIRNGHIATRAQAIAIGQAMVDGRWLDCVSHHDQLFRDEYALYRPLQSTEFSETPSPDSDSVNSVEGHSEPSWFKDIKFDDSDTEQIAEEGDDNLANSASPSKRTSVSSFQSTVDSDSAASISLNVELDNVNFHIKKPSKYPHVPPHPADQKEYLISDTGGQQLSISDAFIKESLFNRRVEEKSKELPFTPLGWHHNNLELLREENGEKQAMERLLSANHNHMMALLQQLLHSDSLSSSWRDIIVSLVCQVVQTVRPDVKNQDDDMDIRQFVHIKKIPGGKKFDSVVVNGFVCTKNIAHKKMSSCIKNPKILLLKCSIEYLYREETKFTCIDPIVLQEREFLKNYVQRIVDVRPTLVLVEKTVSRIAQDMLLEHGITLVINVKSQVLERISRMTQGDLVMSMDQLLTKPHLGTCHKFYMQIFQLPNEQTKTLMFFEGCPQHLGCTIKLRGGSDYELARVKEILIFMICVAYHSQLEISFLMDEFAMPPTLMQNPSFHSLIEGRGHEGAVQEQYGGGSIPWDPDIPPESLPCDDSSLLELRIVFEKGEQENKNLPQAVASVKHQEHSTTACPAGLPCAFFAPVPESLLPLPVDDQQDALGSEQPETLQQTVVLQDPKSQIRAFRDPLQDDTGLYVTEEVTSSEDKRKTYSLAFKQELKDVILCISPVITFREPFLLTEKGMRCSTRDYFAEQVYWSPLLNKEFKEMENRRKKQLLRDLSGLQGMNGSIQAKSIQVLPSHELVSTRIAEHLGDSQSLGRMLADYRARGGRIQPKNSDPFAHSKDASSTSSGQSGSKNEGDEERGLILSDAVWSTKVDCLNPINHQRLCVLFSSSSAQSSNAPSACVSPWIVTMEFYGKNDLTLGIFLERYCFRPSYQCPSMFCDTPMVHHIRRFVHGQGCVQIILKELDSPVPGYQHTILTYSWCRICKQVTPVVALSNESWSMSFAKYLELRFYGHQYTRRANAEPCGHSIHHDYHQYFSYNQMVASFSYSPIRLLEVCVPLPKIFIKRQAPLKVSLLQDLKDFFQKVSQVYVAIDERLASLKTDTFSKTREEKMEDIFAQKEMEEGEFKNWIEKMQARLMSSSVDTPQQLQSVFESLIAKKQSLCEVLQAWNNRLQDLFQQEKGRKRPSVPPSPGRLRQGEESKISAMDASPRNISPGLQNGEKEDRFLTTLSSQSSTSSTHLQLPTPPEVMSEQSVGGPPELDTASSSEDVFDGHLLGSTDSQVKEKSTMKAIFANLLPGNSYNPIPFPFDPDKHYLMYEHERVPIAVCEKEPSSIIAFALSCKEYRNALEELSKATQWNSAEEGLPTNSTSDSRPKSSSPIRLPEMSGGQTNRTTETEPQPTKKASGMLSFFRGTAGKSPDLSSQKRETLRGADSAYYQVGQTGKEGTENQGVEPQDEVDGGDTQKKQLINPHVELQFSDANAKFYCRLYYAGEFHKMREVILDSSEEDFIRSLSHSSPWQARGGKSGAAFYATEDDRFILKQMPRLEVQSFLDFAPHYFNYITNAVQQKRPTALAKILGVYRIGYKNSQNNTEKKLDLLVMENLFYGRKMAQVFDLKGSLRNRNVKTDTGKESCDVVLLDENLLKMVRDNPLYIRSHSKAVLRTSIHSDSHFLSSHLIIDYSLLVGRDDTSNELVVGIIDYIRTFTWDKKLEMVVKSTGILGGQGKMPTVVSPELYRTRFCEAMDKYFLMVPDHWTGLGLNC
Briefly: Inhibition of PIKfyve (microfluidic electrophoresis kinase assay, PI3P/PS substrate). The settings on record: 12 concentrations. In outline:
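GST-tagged full-length human PIKFYVE (baculovirus; 2 nM) with fluorescent PI3P/PS (1 μM PI3P) and […] in pH 7.5 HEPES with Mg2+/Mn2+, 1% DMSO, 3 h at room temperature. PI(3,5)P product/substrate ratio read by microfluidic electrophoresis; 12-point % inhibition versus no-enzyme and DMSO controls.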

Each structure is given as a SMILES string. Structures can show the parent of a compound that is named as a salt.

As to `c1ccc(-c2cc(Nc3nc(N4CCOCC4)c4oc(-c5ccncc5)cc4n3)[nH]n2)cc1` [Compound 1, 4-morpholino-N-(3-phenyl-1H-pyrazol-5-yl)-6-(pyridin-4-yl)furo[3,2-d]pyrimidin-2-amine hydrochloride], the IC50 (as a rule, the point on the concentration scale where inhibition reaches its midpoint) was > 10 µM at PI3Kγ, > 10 µM at PI3Kβ, 6.78 µM on PI3Kα and 0.0014 µM in assay [1].

The record behind these values is US20230146395A1, “Substituted Pyrimidines and Uses Thereof” (Verge Analytics, Inc., priority 2020, published 2023).
